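Cells were grown in 96-well plates and exposed to each compound for 48 hours at five concentrations; endpoints were interpolated linearly between bracketing concentrations, or set to the highest concentration if not reached. TGI denotes the concentration required for complete inhibition of growth.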
Tests used:
Test in all cases: NCI-60 cell line screen, 48 h
[1] = system: IGROV1 ovarian
[2] = system: NCI-H460 lung
[3] = system: OVCAR-4 ovarian
[4] = system: HOP-92 NSCLC
[5] = system: SK-MEL-5 melanoma
[6] = system: MALME-3M melanoma
[7] = system: SK-OV-3 ovarian
[8] = system: MDA-MB-435
[9] = system: SN12C renal
[10] = system: EKVX NSCLC
[11] = system: SNB-19 CNS
[12] = system: TK-10 renal
[13] = system: PC-3 prostate
[14] = system: KM12 colon
[15] = system: UO-31 renal
[16] = system: BT-549 breast
[17] = system: A549 NSCLC
[18] = system: A498 renal
[19] = system: HCT-116 colon
[20] = system: SF-268 CNS
[21] = system: MCF7 breast
[22] = system: RPMI-8226 leukemia
[23] = system: MDA-N
[24] = system: K-562 leukemia
[25] = system: NCI/ADR-RES ovarian
[26] = system: OVCAR-3 ovarian
[27] = system: U251 CNS
[28] = system: T-47D breast
[29] = system: OVCAR-8 ovarian
[30] = system: UACC-62 melanoma
[31] = system: NCI-H522 lung
[32] = system: HL-60(TB) leukemia
[33] = system: UACC-257 melanoma
[34] = system: SF-295 CNS
[35] = system: MDA-MB-231 breast
[36] = system: OVCAR-5 ovarian
[37] = system: HS 578T breast
[38] = system: ACHN renal
[39] = system: SK-MEL-2 melanoma
[40] = system: CCRF-CEM leukemia
[41] = system: RXF 393 renal
[42] = system: LOX IMVI melanoma
[43] = system: COLO 205 colon
[44] = system: MOLT-4 leukemia
[45] = system: HCT-15 colon
[46] = system: NCI-H23 lung
[47] = system: M14 melanoma
[48] = system: SNB-75 CNS
[49] = system: NCI-H226 lung
[50] = system: HOP-62 NSCLC
[51] = system: 786-0 renal
[52] = system: DU-145 prostate
[53] = system: SR leukemia
[54] = system: HT29 colon
[55] = system: CAKI-1 renal
[56] = system: SW-620 colon
[57] = system: HCC-2998 colon
[58] = system: SF-539 CNS
[59] = system: SK-MEL-28 melanoma

Structure (SMILES): CC1=CC(C)C(C)N(CC2=NCCN2)c2ccccc21 (configuration not stated)
- TGI [1]: > 100 µM
- TGI [2]: > 100 µM
- TGI [3]: > 100 µM
- TGI [4]: 45.6 µM
- TGI [5]: 36.4 µM
- TGI [6]: 44.6 µM
- TGI [7]: > 100 µM
- TGI [8]: > 100 µM
- TGI [9]: > 100 µM
- TGI [10]: > 100 µM
- TGI [11]: > 100 µM
- TGI [12]: > 100 µM
- TGI [13]: > 100 µM
- TGI [14]: > 100 µM
- TGI [15]: > 100 µM
- TGI [16]: > 100 µM
- TGI [17]: > 100 µM
- TGI [18]: > 100 µM
- TGI [19]: > 100 µM
- TGI [20]: > 100 µM
- TGI [21]: > 100 µM
- TGI [22]: > 100 µM
- TGI [23]: > 100 µM
- TGI [24]: > 100 µM
- TGI [25]: > 100 µM
- TGI [26]: > 100 µM
- TGI [27]: > 100 µM
- TGI [28]: > 100 µM
- TGI [29]: > 100 µM
- TGI [30]: > 100 µM
- TGI [31]: > 100 µM
- TGI [32]: > 89.3 µM
- TGI [33]: 37.1 µM
- TGI [34]: > 100 µM
- TGI [35]: > 100 µM
- TGI [36]: > 100 µM
- TGI [37]: > 100 µM
- TGI [38]: > 100 µM
- TGI [39]: > 92.1 µM
- TGI [40]: > 100 µM
- TGI [41]: > 89.9 µM
- TGI [42]: > 100 µM
- TGI [43]: 32.3 µM
- TGI [44]: > 100 µM
- TGI [45]: > 100 µM
- TGI [46]: > 100 µM
- TGI [47]: 32.7 µM
- TGI [48]: > 85.5 µM
- TGI [49]: > 100 µM
- TGI [50]: > 100 µM
- TGI [51]: > 100 µM
- TGI [52]: > 100 µM
- TGI [53]: > 82.4 µM
- TGI [54]: 45.8 µM
- TGI [55]: > 100 µM
- TGI [56]: > 100 µM
- TGI [57]: 33.9 µM
- TGI [58]: > 100 µM
- TGI [59]: 38.5 µM

Structure (SMILES): CN1CCC(CN2c3ccccc3Sc3ccccc32)C1 (configuration not stated)
- TGI [1]: 31.6 µM
- TGI [2]: 28.2 µM
- TGI [3]: 28.1 µM
- TGI [4]: 29.5 µM
- TGI [5]: 27.7 µM
- TGI [6]: 31.7 µM
- TGI [7]: 31.6 µM
- TGI [8]: 23.7 µM
- TGI [9]: 29.1 µM
- TGI [10]: 31.5 µM
- TGI [11]: 33.1 µM
- TGI [12]: 31.4 µM
- TGI [13]: 25.4 µM
- TGI [14]: 34.5 µM
- TGI [15]: 30 µM
- TGI [16]: 30.8 µM
- TGI [17]: 32.2 µM
- TGI [18]: 26.2 µM
- TGI [19]: 26.9 µM
- TGI [20]: 29.5 µM
- TGI [21]: 35 µM
- TGI [22]: 33.8 µM
- TGI [23]: 27.7 µM
- TGI [24]: 27.4 µM
- TGI [25]: 29.8 µM
- TGI [26]: 28.6 µM
- TGI [27]: 26.6 µM
- TGI [28]: 34.2 µM
- TGI [29]: 31.9 µM
- TGI [30]: 25.9 µM
- TGI [31]: 32 µM
- TGI [32]: 29.7 µM
- TGI [33]: 24.4 µM
- TGI [34]: 29.8 µM
- TGI [35]: 27.4 µM
- TGI [36]: 31.8 µM
- TGI [37]: 36.7 µM
- TGI [38]: 27.9 µM
- TGI [39]: 30.6 µM
- TGI [40]: 31.6 µM
- TGI [41]: 17.4 µM
- TGI [42]: 30 µM
- TGI [43]: 25.2 µM
- TGI [44]: 38.7 µM
- TGI [45]: 31.4 µM
- TGI [46]: 36 µM
- TGI [47]: 23.5 µM
- TGI [48]: 11.1 µM
- TGI [49]: 35 µM
- TGI [50]: 28.5 µM
- TGI [51]: 27.9 µM
- TGI [52]: 38.1 µM
- TGI [53]: 29.6 µM
- TGI [54]: 23.8 µM
- TGI [55]: 28.8 µM
- TGI [56]: 35.7 µM
- TGI [57]: 24.7 µM
- TGI [58]: 31.9 µM
- TGI [59]: 19.4 µM

Structure (SMILES): CC1(c2ccc(Cl)cc2)NC(=NCCO)c2ccccc21 (configuration not stated)
- TGI [1]: > 100 µM
- TGI [2]: > 84.5 µM
- TGI [3]: > 100 µM
- TGI [4]: 77.9 µM
- TGI [5]: 31 µM
- TGI [6]: 35 µM
- TGI [7]: > 100 µM
- TGI [8]: 32.6 µM
- TGI [9]: > 100 µM
- TGI [10]: > 100 µM
- TGI [11]: > 100 µM
- TGI [12]: > 100 µM
- TGI [13]: > 100 µM
- TGI [14]: > 57.3 µM
- TGI [15]: > 100 µM
- TGI [16]: 99.7 µM
- TGI [17]: > 100 µM
- TGI [18]: 52.6 µM
- TGI [19]: > 100 µM
- TGI [20]: > 100 µM
- TGI [21]: 53.1 µM
- TGI [22]: 19.5 µM
- TGI [23]: 26.9 µM
- TGI [24]: 33.4 µM
- TGI [25]: > 100 µM
- TGI [26]: > 100 µM
- TGI [27]: > 100 µM
- TGI [28]: > 48 µM
- TGI [29]: > 100 µM
- TGI [30]: 32.1 µM
- TGI [31]: > 100 µM
- TGI [32]: > 35.5 µM
- TGI [33]: 33.5 µM
- TGI [34]: > 81.1 µM
- TGI [35]: > 100 µM
- TGI [36]: > 100 µM
- TGI [37]: > 95.1 µM
- TGI [38]: > 100 µM
- TGI [39]: 37.7 µM
- TGI [40]: 24.2 µM
- TGI [41]: 57.9 µM
- TGI [42]: 32.8 µM
- TGI [43]: 28.8 µM
- TGI [44]: 37.8 µM
- TGI [45]: > 100 µM
- TGI [46]: > 94.5 µM
- TGI [47]: 25.5 µM
- TGI [48]: > 85.1 µM
- TGI [49]: > 100 µM
- TGI [50]: > 100 µM
- TGI [51]: 30.4 µM
- TGI [52]: > 70.8 µM
- TGI [53]: 46 µM
- TGI [54]: > 62.8 µM
- TGI [55]: > 100 µM
- TGI [56]: > 100 µM
- TGI [57]: 24.8 µM
- TGI [58]: 27.3 µM
- TGI [59]: 30 µM
